Measured values reported in US20240336654A1, “ANTIMICROBIAL PEPTIDOMIMETICS” (SPEXIS AG, priority 2021, published 2024).
Where a SMILES comes first, the peptide text is derived from it. Bridges are numbered along the chain shown (N, C = ends). [ ]: non-standard residue; d: D form. Hyp = O=C(O)[C@@H]1C[C@@H](O)CN1; Pen = CC(C)(S)[C@H](N)C(=O)O; ΔPro = O=C(O)[C@@H]1C=CCN1; dDab = NCC[C@@H](N)C(=O)O; Dab = NCC[C@H](N)C(=O)O

Key:
Assay type in all cases: cell-based
[1] = tested on: Escherichia coli ATCC 25922; details: ATCC 25922
Protocol: (§1) Lyophilized peptides were weighed on a Microbalance (Mettler MT5) and dissolved in sterile water to a final concentration of 1 mg/mL. Stock solutions were kept at +4° C., light protected.
(§2) The selective antimicrobial activities of the peptides were determined in 96-well plates (Greiner, polystyrene) by the standard CLSI broth microdilution method (Clinical and Laboratory Standards Institute. Methods for Dilution Antimicrobial Susceptibility Tests for Bacteria That Grow Aerobically; Approved Standard-Ninth Edition. CLSI document M07-A9 (ISBN 1-56238-783-9 [Print]; ISBN 1-56238-784-7 [Electronic]). Clinical and Laboratory Standards Institute, 950 West Valley Road, Suite 2500, Wayne, Pennsylvania 19087, USA, 2012) with slight modifications.
(§3) Colonies of the microorganisms were diluted in saline (0.85%, NaCl) and adjusted using a McFarland reader (bioMérieux SA, Marcy-l'Etoile, France) to 0.5 McFarland standard. Subsequently, the bacterial suspension was diluted in Mueller-Hinton II (MHII, cation adjusted) broth to give approximately 5×10^5 colony forming units (CFU/mL).
(§4) Inocula of the microorganisms were diluted into Mueller-Hinton II (MH, cation adjusted) broth and compared with a 0.5 McFarland standard to give appr. 10^6 colony forming units (CFU)/mL. Aliquots (90 μl) of inoculate were added to 10 μl of water+P-80 (Polysorbate 80, 0.002% final concentration) containing the peptide in serial two-fold dilutions at 10 fold final concentration. The following microorganisms were used to determine antibiotic selectivity of the peptides: Escherichia coli ATCC 25922, Escherichia coli MCR-1 Af 45 and Klebsiella pneumoniae SSI3010. Antimicrobial activities of the peptides were expressed as the minimal inhibitory concentration (MIC) in μg/mL at which no visible growth was observed after 18-20 hours of incubation at 35° C.

[2] = tested on: Escherichia coli MCR-1 Af 45; details: MCR-1 Af 45
Protocol: as §1, §2, §3, §4

[3] = tested on: Klebsiella pneumoniae SSI3010; details: SSI3010
Protocol: as §1, §2, §3, §4

[4] = tested on: human red blood cells (hRBC); details: red cells of human, 1 h, 200 μg/mL
Protocol: Lyophilized peptides were weighed on a Microbalance (Mettler MT5) and dissolved in sterile water to a final concentration of 1 mg/mL. Stock solutions were kept at +4° C., light protected. The peptides were tested for their hemolytic activity against human red blood cells (hRBC). Fresh hRBC were washed three times with phosphate buffered saline (PBS) and centrifuged for 5 min at 3000×g. Compounds (200 μg/mL) were incubated with 20% hRBC (v/v) for 1 h at 37° C. and shaking at 300 rpm. A value of 0% and 100% cell lyses, respectively, was determined by incubation of hRBC in the presence of PBS and 2.5% Triton X-100 in H2O, respectively. The samples were centrifuged, the supernatants were 8-fold diluted in PBS buffer and the optical densities (OD) were measured at 540 nm. The 100% lyses value (OD540H2O) gave an OD540 of approximately 0.5-1.0. Percent hemolysis was calculated as follows: (OD540peptide/OD540H2O)×100%.

Row | Compound | Escherichia coli ATCC 25922 MIC [1] | Escherichia coli MCR-1 Af45 MIC [2] | Klebsiella pneumoniae SSI3010 MIC [3] | Hemolysis at 0.2 g/L [4]
1 | CC[C@H](C)[C@H](NC(=O)[C@@H]1C=CCN1C(=O)[C@@H](N)C(C)C)C(=O)N[C@@H]1C(=O)N[C@@H](Cc2ccc(O)cc2)C(=O)N[C@@H]([C@@H](C)O)C(=O)N[C@@H](CC(N)=O)C(=O)N[C@@H](CCCNC(=N)N)C(=O)N[C@@H](CCN)C(=O)N[C@@H]([C@@H](C)O)C(=O)N[C@H](CCN)C(=O)N[C@@H](CCCCN)C(=O)N[C@@H](CCN)C(=O)N[C@@H](CCN)C(=O)N[C@H](C(=O)N[C@@H](Cc2ccc(O)cc2)C(=O)O)CSSC1(C)C [Example 10, Val-Pro(3,4dehydro)-Ile-Pen-Tyr-Thr-Asn-Arg-Dab-Thr-^DDab-Lys-Dab-Dab-Cys-Tyr] (H-V[ΔPro]I[Pen]YTNR[Dab]T[dDab]K[Dab][Dab]CY-OH; disulfide 4-15) | 0.0625 µg/mL | 0.0625 µg/mL | 0.125 µg/mL | <1%
2 | CC[C@H](C)[C@H](NC(=O)[C@@H]1C[C@@H](O)CN1C(=O)[C@@H](N)C(C)C)C(=O)N[C@H]1CSSC[C@@H](C(=O)N[C@@H](Cc2ccc(O)cc2)C(=O)O)NC(=O)[C@H](CCN)NC(=O)[C@H](CCN)NC(=O)[C@H](CCCCN)NC(=O)[C@@H](CCN)NC(=O)[C@H]([C@@H](C)O)NC(=O)[C@H](CCN)NC(=O)[C@H](CCCNC(=N)N)NC(=O)[C@H](CC(N)=O)NC(=O)[C@H](CO)NC(=O)[C@H](Cc2ccc(O)cc2)NC1=O [Example 11, Val-Hyp-Ile-Cys-Tyr-Ser-Asn-Arg-Dab-Thr-^DDab-Lys-Dab-Dab-Cys-Tyr] (H-V[Hyp]ICYSNR[Dab]T[dDab]K[Dab][Dab]CY-OH; disulfide 4-15) | 0.5 µg/mL | 0.25 µg/mL | 0.5 µg/mL | <1%
3 | CC[C@H](C)[C@H](NC(=O)[C@@H]1C[C@@H](O)CN1C(=O)[C@@H](N)C(C)C)C(=O)N[C@H]1CSSC(C)(C)[C@@H](C(=O)N[C@@H](Cc2ccc(O)cc2)C(=O)O)NC(=O)[C@H](CCN)NC(=O)[C@H](CCN)NC(=O)[C@H](CCCCN)NC(=O)[C@@H](CCN)NC(=O)[C@H]([C@@H](C)O)NC(=O)[C@H](CCN)NC(=O)[C@H](CCCNC(=N)N)NC(=O)[C@H](CC(N)=O)NC(=O)[C@H](CO)NC(=O)[C@H](Cc2ccc(O)cc2)NC1=O [Example 12, Val-Hyp-Ile-Cys-Tyr-Ser-Asn-Arg-Dab-Thr-^DDab-Lys-Dab-Dab-Pen-Tyr] (H-V[Hyp]ICYSNR[Dab]T[dDab]K[Dab][Dab][Pen]Y-OH; disulfide 4-15) | 0.25 µg/mL | 0.125 µg/mL | 0.5 µg/mL | <1%
4 | CC[C@H](C)[C@H](NC(=O)[C@@H]1C[C@@H](O)CN1C(=O)[C@@H](N)C(C)C)C(=O)N[C@@H]1C(=O)N[C@@H](C)C(=O)N[C@@H](CO)C(=O)N[C@@H](CC(N)=O)C(=O)N[C@@H](CCCNC(=N)N)C(=O)N[C@@H](CCN)C(=O)N[C@@H]([C@@H](C)O)C(=O)N[C@H](CCN)C(=O)N[C@@H](CCCCN)C(=O)N[C@@H](CCN)C(=O)N[C@@H](CCN)C(=O)N[C@H](C(=O)N[C@@H](Cc2ccc(O)cc2)C(=O)O)CSSC1(C)C [Example 13, Val-Hyp-Ile-Pen-Ala-Ser-Asn-Arg-Dab-Thr-^DDab-Lys-Dab-Dab-Cys-Tyr] (H-V[Hyp]I[Pen]ASNR[Dab]T[dDab]K[Dab][Dab]CY-OH; disulfide 4-15) | 0.5 µg/mL | 0.125 µg/mL | 0.5 µg/mL | <1%
